# Experimental data reported in patent US8329746B2, “Method for treating osteoarthritis” (CaloSyn Pharma, Inc., priority 2005, dated 2012).
# Tested on: synovial lining cells
# Settings: human
row,SMILES,concentration that must not be exceeded in compositions (harmful effects on synovial cells)
1,CCN(CC)CCNC(=O)c1ccc(N)cc1 [procainamide],≤ 2000 µg/mL
2,COc1ccc(CCN(C)CCCC(C#N)(c2ccc(OC)c(OC)c2)C(C)C)cc1OC (centres unmarked) [verapamil],≤ 2000 µg/mL
